Assay results: patent US7842808B2, “Anti-migraine spirocycles” (Bristol-Myers Squibb Company, priority 2002, dated 2010)

Molecular target: T1, CGRP receptor (SK-N-MC cell membranes) (Homo sapiens, UniProt O60894+Q16602)
T1 construct: endogenous in cells; host or cells: SK-N-MC cells (membrane homogenate)
Assay: CGRP Binding Assay ([125I]-CGRP radioligand binding, SK-N-MC homogenate)
Conditions: not given
Experimental: Tissue Culture. SK-N-MC cells were grown at 37° C. in 5% CO2 as a monolayer in medium consisting of MEM with Earle's salts and L-glutamine (Gibco) supplemented with 10% fetal bovine serum (Gibco).
Cell Pellets. […] The cells were transferred from plates to polypropylene tubes (16×100 mm) and homogenized using a polytron. Homogenates were centrifuged at 32,000×g for 30 min. The pellets were resuspended in cold hypotonic lysis buffer with 0.1% mammalian protease inhibitor cocktail (Sigma) and assayed for protein concentration. The SK-N-MC homogenate was then aliquoted and stored at −80° C. until needed.
Radioligand Binding Assay. The compounds of invention were solubilized and carried through serial dilutions using 100% DMSO. Aliquots from the compound serial dilutions were further diluted 25 fold into assay buffer (50 mM Tris-Cl pH 7.5, 5 mM MgCl2, 0.005% Triton X-100) and transferred (volume 50 μl) into 96 well assay plates. […] SK-N-MC pellets were thawed, diluted in assay buffer with fresh 0.1% mammalian protease inhibitor cocktail (Sigma), and homogenized again. SK-N-MC homogenate (5 μg/well) was added in a volume of 100 μl. The assay plates were then incubated at room temperature for 2 h. Assays were stopped by addition of excess cold wash buffer (20 mM Tris-Cl pH 7.5, 0.1% BSA) immediately followed by filtration over glass fiber filters (Whatman GF/B) previously soaked in 0.5% PEI. Non-specific binding was defined with 1 μM beta-CGRP. Protein bound radioactivity was determined using a gamma or scintillation counter.

T1 sequence (Q16602 23-461): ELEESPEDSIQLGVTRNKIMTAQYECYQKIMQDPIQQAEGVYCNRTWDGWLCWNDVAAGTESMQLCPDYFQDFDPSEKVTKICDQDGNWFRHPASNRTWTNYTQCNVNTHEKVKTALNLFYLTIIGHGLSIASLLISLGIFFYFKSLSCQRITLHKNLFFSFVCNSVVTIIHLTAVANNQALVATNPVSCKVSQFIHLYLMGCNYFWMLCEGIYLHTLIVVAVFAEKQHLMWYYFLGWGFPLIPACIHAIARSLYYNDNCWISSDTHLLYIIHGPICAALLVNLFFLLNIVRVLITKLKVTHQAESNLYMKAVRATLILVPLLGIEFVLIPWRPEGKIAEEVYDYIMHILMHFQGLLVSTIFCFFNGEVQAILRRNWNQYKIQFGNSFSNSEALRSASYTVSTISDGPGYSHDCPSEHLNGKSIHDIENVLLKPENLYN
T1 sequence (O60894 27-148): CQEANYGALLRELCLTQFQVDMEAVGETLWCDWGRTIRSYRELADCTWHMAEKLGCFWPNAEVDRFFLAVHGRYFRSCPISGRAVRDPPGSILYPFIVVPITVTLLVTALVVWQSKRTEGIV

| Compound | IC50 [nM] |
| --- | --- |
| O=C1Nc2ccccc2C2(CCN(C(=O)CC(Cc3ccc4[nH]ncc4c3)C(=O)N3CCC4(CC3)OCCO4)CC2)O1 (racemic) [Example 80, (±)-1-(1,4-Dioxa-8-aza-spiro[4.5]dec-8-yl)-2-(1H-indazol-5-ylmethyl)-4-[1′,2′-dihydro-2′-oxospiro-[4H-3′,1-benzoxazine-4,4′-piperidinyl]-butane-1,4-dione] | 100 to 1000 |

Same assay, conditions: displacement of [125I]-CGRP, SK-N-MC homogenate; read-out: CGRP binding IC50

| Compound | IC50 [nM] |
| --- | --- |
| O=C(Nc1ccc(F)cc1)N[C@@H](CC(=O)N1CCC(N2Cc3ccccc3NC2=O)CC1)C(=O)N1CCC(N2CCCCC2)CC1 [Example 180] | 100 to 1000 |
| Cc1ccc(NC(=O)N[C@@H](CC(=O)N2CCC(N3Cc4ccccc4NC3=O)CC2)C(=O)N2CCC(N3CCCCC3)CC2)cc1C [Example 158] | 10 to 100 |
| O=C(NC(Cc1ccc2[nH]ncc2c1)C(=O)N1CCN(C/C=C/c2ccccc2)CC1)N1CCC(N2Cc3ccccc3NC2=O)CC1 (centres unmarked) [Example 40j] | > 1000 |
| Cc1c(Cl)cccc1NC(=O)N[C@@H](CC(=O)N1CCC(N2Cc3ccccc3NC2=O)CC1)C(=O)N1CCC(N2CCCCC2)CC1 [Example 192] | 100 to 1000 |
| O=C(NCCc1cccs1)N[C@@H](CC(=O)N1CCC(N2Cc3ccccc3NC2=O)CC1)C(=O)N1CCC(N2CCCCC2)CC1 [Example 169] | 100 to 1000 |
| O=C1Cc2cc(C[C@@H](NC(=O)N3CCC(N4Cc5ccccc5NC4=O)CC3)C(=O)N3CCC(N4CCCCC4)CC3)ccc2N1 [Example 50, (R)-4-(2-Oxo-1,4-dihydro-2H-quinazolin-3-yl)-piperidine-1-carboxylic acid[2-[1,4′]bipiperidinyl-1′-yl-2-oxo-1-(2-oxo-2,3-dihydro-1H-indol-5-ylmethyl)-ethyl]-amide] | < 10 |
| O=C(Nc1cccc2ccccc12)N[C@@H](CC(=O)N1CCC(N2Cc3ccccc3NC2=O)CC1)C(=O)N1CCC(N2CCCCC2)CC1 [Example 137] | 100 to 1000 |
| Cc1cc(Br)ccc1NC(=O)N[C@@H](CC(=O)N1CCC(N2Cc3ccccc3NC2=O)CC1)C(=O)N1CCC(N2CCCCC2)CC1 [Example 194] | 100 to 1000 |
| CCc1cc(CC(NC(=O)N2CCC(N3Cc4ccccc4NC3=O)CC2)C(=O)OC)cc2cn[nH]c12 (racemic) [Example 44, (±)-3-(7-Ethyl-1H-indazol-5-yl)-2-{[4-(2-oxo-1,4-dihydro-2H-quinazolin-3-yl)-piperidine-1-carbonyl]-amino}-propionic acid methyl ester] | 100 to 1000 |
| COC(=O)[C@H](Cc1ccccc1)NC(=O)N[C@@H](CC(=O)N1CCC(N2Cc3ccccc3NC2=O)CC1)C(=O)N1CCC(N2CCCCC2)CC1 [Example 166] | 100 to 1000 |
| O=C(N[C@@H](CC(=O)N1CCC(N2Cc3ccccc3NC2=O)CC1)C(=O)N1CCC(N2CCCCC2)CC1)c1cccc(F)c1 [Example 105] | 100 to 1000 |
| O=C(Nc1cc(F)ccc1F)N[C@@H](CC(=O)N1CCC(N2Cc3ccccc3NC2=O)CC1)C(=O)N1CCC(N2CCCCC2)CC1 [Example 184] | 10 to 100 |
| O=C(N[C@@H](CC(=O)N1CCC(N2Cc3ccccc3NC2=O)CC1)C(=O)N1CCC(N2CCCCC2)CC1)Oc1ccc(Br)cc1 [Example 133] | 100 to 1000 |
| COC(=O)C(Cc1cc(C)c2[nH]ncc2c1)NC(=O)N1CCC2(CC1)OC(=O)Nc1ccccc12 (centres unmarked) [Example 14, 3-(7-Methyl-1H-indazol-5-yl)-2-(1,2-dihydro-2-oxospiro-4H-3,1-dihydro-benzoxazine-4′4-piperidine-carbonylamino)-propionic acid methyl ester] | > 1000 |
| COc1ccc(Cl)cc1NC(=O)N[C@@H](CC(=O)N1CCC(N2Cc3ccccc3NC2=O)CC1)C(=O)N1CCC(N2CCCCC2)CC1 [Example 187] | 100 to 1000 |
| O=C(Nc1cccc(C(F)(F)F)c1)N[C@@H](CC(=O)N1CCC(N2Cc3ccccc3NC2=O)CC1)C(=O)N1CCC(N2CCCCC2)CC1 [Example 153] | 100 to 1000 |
| COc1ccc(NC(=O)N[C@@H](CC(=O)N2CCC(N3Cc4ccccc4NC3=O)CC2)C(=O)N2CCC(N3CCCCC3)CC2)c(OC)c1 [Example 155] | 100 to 1000 |
| COc1ccc(OC)c(NC(=O)N[C@@H](CC(=O)N2CCC(N3Cc4ccccc4NC3=O)CC2)C(=O)N2CCC(N3CCCCC3)CC2)c1 [Example 174] | 100 to 1000 |
| Cc1cc(Cl)ccc1NC(=O)N[C@@H](CC(=O)N1CCC(N2Cc3ccccc3NC2=O)CC1)C(=O)N1CCC(N2CCCCC2)CC1 [Example 191] | 100 to 1000 |

| Compound | IC50 [nM] |
| --- | --- |
| O=C(O)C(Cc1ccc2[nH]ncc2c1)NC(=O)N1CCC(N2Cc3ccccc3NC2=O)CC1 (racemic) [Example 1, (±)-3-(1H-Indazol-5-yl)-2-{[4-(2-oxo-1,4-dihydro-2H-quinazolin-3-yl)-piperidine-1-carbonyl]-amino}-propionic acid] | 100 to 1000 |
| O=C(NC(Cn1ccc(OCc2ccccc2)cc1=O)C(=O)N1CCC(N2CCCCC2)CC1)N1CCC(N2Cc3ccccc3NC2=O)CC1 (racemic) [Example 51, (±)-4-(2-Oxo-1,4-dihydro-2H-quinazolin-3-yl)-piperidine-1-carboxylic acid[1-(4-benzyloxy-2-oxo-2H pyridin-1-ylmethyl)-2-[1,4′]bipiperidinyl-1′-yl-2-oxo-ethyl]-amide] | > 1000 |
| O=C(NC(Cn1ccc(O)cc1=O)C(=O)N1CCC(N2CCCCC2)CC1)N1CCC(N2Cc3ccccc3NC2=O)CC1 (racemic) [Example 52, (±)-4-(2-Oxo-1,4-dihydro-2H-quinazolin-3-yl)-piperidine-1-carboxylic acid[2-[1,4′]bipiperidinyl-1′-yl-1-(4-hydroxy-2-oxo-2H-pyridin-1-ylmethyl)-2-oxo-ethyl]-amide] | > 1000 |
| O=C(Cc1ccc(Cl)cc1)N[C@@H](CC(=O)N1CCC(N2Cc3ccccc3NC2=O)CC1)C(=O)N1CCC(N2CCCCC2)CC1 [Example 127] | 100 to 1000 |
| COc1ccc(CC(NC(=O)N2CCC(N3Cc4ccccc4NC3=O)CC2)C(=O)N2CCC(N3CCCCC3)CC2)cn1 (racemic) [Example 57, (±)-4-(2-Oxo-1,4-dihydro-2H-quinazolin-3-yl)-piperidine-1-carboxylic acid[2-[1,4′]bipiperidinyl-1′-yl-1-(6-methoxy-pyridin-3-ylmethyl)-2-oxo-ethyl]-amide] | 100 to 1000 |
| Cc1cc(CC(NC(=O)N2CCC(N3Cc4ccccc4NC3=O)CC2)C(=O)OC2CCCCC2)cc2cn[nH]c12 (centres unmarked) [Example 41a, 3-(7-Methyl-1H-indazol-5-yl)-2-{[4-(2-oxo-1,4-dihydro-2H-quinazolin-3-yl)-piperidine-1-carbonyl]-amino}-propionic acid cyclohexyl ester] | 10 to 100 |
| Cc1cc(CC(NC(=O)N2CCC3(CC2)CC(=O)Nc2ccccc23)C(=O)N(C)C)cc2cn[nH]c12 (racemic) [Example 33, (±)-[1-Dimethylcarbmoyl-2-(7-methyl-1H-indazol-5-yl)-ethy]1-3′,4′-dihydro-2′-oxospiro-[piperidine-4,4′-(1H)-quinoline]-1-carboxamide] | 100 to 1000 |
| O=C(N[C@@H](CC(=O)N1CCC(N2Cc3ccccc3NC2=O)CC1)C(=O)N1CCC(N2CCCCC2)CC1)c1cc(F)cc(F)c1 [Example 122] | 100 to 1000 |
| CCOc1ccccc1NC(=O)N[C@@H](CC(=O)N1CCC(N2Cc3ccccc3NC2=O)CC1)C(=O)N1CCC(N2CCCCC2)CC1 [Example 175] | 100 to 1000 |
| O=C(Nc1ccc(Oc2ccccc2)cc1)N[C@@H](CC(=O)N1CCC(N2Cc3ccccc3NC2=O)CC1)C(=O)N1CCC(N2CCCCC2)CC1 [Example 146] | 10 to 100 |
| CC(C)(C)OC(=O)N[C@@H](CC(=O)N1CCC(N2Cc3ccccc3NC2=O)CC1)C(=O)N1CCC(N2CCCCC2)CC1 [Example 85, (L)-{1-([1,4′]Bipiperidinyl-1′-carbonyl)-3-oxo-3-[4-(2-oxo-1,4-dihydro-2H-quinazolin-3-yl)-piperidin-1-yl]-propyl}-carbamic acid tert-butyl ester] | 100 to 1000 |
| O=C(N[C@@H](CC(=O)N1CCC(N2Cc3ccccc3NC2=O)CC1)C(=O)N1CCC(N2CCCCC2)CC1)c1cccc(Cl)c1 [Example 129] | 100 to 1000 |
| O=C(C[C@H](NC1CCC(O)CC1)C(=O)N1CCC(N2CCCCC2)CC1)N1CCC(N2Cc3ccccc3NC2=O)CC1 (some centres unmarked) [Example 97, (L)-1-[1,4′]Bipiperidinyl-1′-yl-2-(4-hydroxy-cyclohexylamino)-4-[4-(2-oxo-1,4-dihydro-2H-quinazolin-3-yl)-piperidin-1-yl]-butane-1,4-dione] | > 1000 |
| O=C(Nc1ccccc1-c1ccccc1)N[C@@H](CC(=O)N1CCC(N2Cc3ccccc3NC2=O)CC1)C(=O)N1CCC(N2CCCCC2)CC1 [Example 197] | 100 to 1000 |
| O=C(Nc1cccc(F)c1)N[C@@H](CC(=O)N1CCC(N2Cc3ccccc3NC2=O)CC1)C(=O)N1CCC(N2CCCCC2)CC1 [Example 177] | 10 to 100 |
| CCCN1CCN(C(=O)C(Cc2ccc3[nH]ncc3c2)NC(=O)N2CCC(N3Cc4ccccc4NC3=O)CC2)CC1 (centres unmarked) [Example 40d] | 100 to 1000 |
| O=C(Nc1ccccc1OC(F)(F)F)N[C@@H](CC(=O)N1CCC(N2Cc3ccccc3NC2=O)CC1)C(=O)N1CCC(N2CCCCC2)CC1 [Example 200] | 10 to 100 |
| O=C(Nc1ccc(C(F)(F)F)cc1)N[C@@H](CC(=O)N1CCC(N2Cc3ccccc3NC2=O)CC1)C(=O)N1CCC(N2CCCCC2)CC1 [Example 160] | 100 to 1000 |
